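Growth conditions: 96-well plates. Treatment: test compound, 48 hours, 5 concentrations. Analysis: linear interpolation between bracketing concentrations; unreached endpoints set to highest concentration. At the GI50, growth is halved.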 Activity calls are given as the source filed them. No stated cut-off is given here; in the data, active = GI50 up to about 1.1 µM and inactive = higher.
Assays:
Experiment in all cases: NCI-60 cell line screen, 48 h
786-0 = test system: 786-0
A498 = test system: A498
A549 = test system: A549
ACHN = test system: ACHN
BT-549 = test system: BT-549
CAKI-1 = test system: CAKI-1
CCRF-CEM = test system: CCRF-CEM
COLO 205 = test system: COLO 205
DLD-1 = test system: DLD-1
DMS-114 = test system: DMS-114
DMS-273 = test system: DMS-273
DU-145 = test system: DU-145
EKVX = test system: EKVX
HCC 2998 = test system: HCC 2998
HCT-116 = test system: HCT-116
HCT-15 = test system: HCT-15
HL-60 = test system: HL-60
HOP-18 = test system: HOP-18
HOP-62 = test system: HOP-62
HOP-92 = test system: HOP-92
HT-29 = test system: HT-29
Hs-578T = test system: Hs-578T
IGROV-1 = test system: IGROV-1
K562 = test system: K562
KM-20L2 = test system: KM-20L2
KM12 = test system: KM12
LOX IMVI = test system: LOX IMVI
LXFL 529 = test system: LXFL 529
M14 = test system: M14
M19-MEL = test system: M19-MEL
MCF7 = test system: MCF7
MDA-MB-231 = test system: MDA-MB-231
MDA-MB-435 = test system: MDA-MB-435
MDA-N = test system: MDA-N
MOLT-4 = test system: MOLT-4
Malme-3M = test system: Malme-3M
NCI-H226 = test system: NCI-H226
NCI-H23 = test system: NCI-H23
NCI-H460 = test system: NCI-H460
NCI-H522 = test system: NCI-H522
NCI/ADR-RES = test system: NCI/ADR-RES
OVCAR-3 = test system: OVCAR-3
OVCAR-4 = test system: OVCAR-4
OVCAR-5 = test system: OVCAR-5
OVCAR-8 = test system: OVCAR-8
PC-3 = test system: PC-3
RPMI-8226 = test system: RPMI-8226
RXF 393 = test system: RXF 393
RXF 631 = test system: RXF 631
SF-268 = test system: SF-268
SF-295 = test system: SF-295
SF-539 = test system: SF-539
SK-MEL-28 = test system: SK-MEL-28
SK-MEL-2 = test system: SK-MEL-2
SK-MEL-5 = test system: SK-MEL-5
SK-OV-3 = test system: SK-OV-3
SN12C = test system: SN12C
SNB-19 = test system: SNB-19
SNB-75 = test system: SNB-75
SNB-78 = test system: SNB-78
SR = test system: SR
SW-620 = test system: SW-620
T47D = test system: T47D
TK-10 = test system: TK-10
U-251 = test system: U-251
UACC-257 = test system: UACC-257
UACC-62 = test system: UACC-62
UO-31 = test system: UO-31
XF498 = test system: XF498

## Cc1cc(C)c(-n2c(-c3ccc(Br)cc3)cs/c2=N\N=C2C=C(C(C)(C)C)C(=O)C(C(C)(C)C)=C2)c(C)c1
786-0
  GI50: > 100 µM (inactive)
A498
  GI50: 31.3 µM (inactive)
A549
  GI50: > 100 µM (inactive)
ACHN
  GI50: > 100 µM (inactive)
BT-549
  GI50: > 100 µM (inactive)
CAKI-1
  GI50: > 100 µM (inactive)
CCRF-CEM
  GI50: > 100 µM (inactive)
COLO 205
  GI50: > 100 µM (inactive)
DLD-1
  GI50: > 100 µM (inactive)
DMS-114
  GI50: > 100 µM (inactive)
DMS-273
  GI50: > 100 µM (inactive)
DU-145
  GI50: > 100 µM (inactive)
EKVX
  GI50: > 100 µM (inactive)
HCC 2998
  GI50: > 100 µM (inactive)
HCT-116
  GI50: > 76 µM (inactive)
HCT-15
  GI50: > 100 µM
HL-60
  GI50: > 100 µM (inactive)
HOP-18
  GI50: > 100 µM (inactive)
HOP-62
  GI50: 32.7 µM (inactive)
HOP-92
  GI50: > 50.1 µM (inactive)
HT-29
  GI50: > 100 µM (inactive)
Hs-578T
  GI50: 15.3 µM (inactive)
IGROV-1
  GI50: > 63.7 µM (inactive)
K562
  GI50: > 100 µM (inactive)
KM-20L2
  GI50: > 100 µM (inactive)
KM12
  GI50: > 100 µM (inactive)
LOX IMVI
  GI50: > 100 µM (inactive)
LXFL 529
  GI50: > 100 µM (inactive)
M14
  GI50: > 100 µM (inactive)
M19-MEL
  GI50: > 100 µM (inactive)
MCF7
  GI50: > 100 µM (inactive)
MDA-MB-231
  GI50: 55.3 µM (inactive)
MDA-MB-435
  GI50: > 100 µM (inactive)
MDA-N
  GI50: > 100 µM (inactive)
MOLT-4
  GI50: > 100 µM (inactive)
Malme-3M
  GI50: > 100 µM (inactive)
NCI-H226
  GI50: > 100 µM (inactive)
NCI-H23
  GI50: > 100 µM (inactive)
NCI-H460
  GI50: > 100 µM (inactive)
NCI-H522
  GI50: > 100 µM (inactive)
NCI/ADR-RES
  GI50: > 100 µM (inactive)
OVCAR-3
  GI50: > 100 µM (inactive)
OVCAR-4
  GI50: > 100 µM (inactive)
OVCAR-5
  GI50: > 100 µM (inactive)
OVCAR-8
  GI50: > 100 µM (inactive)
PC-3
  GI50: > 100 µM (inactive)
RPMI-8226
  GI50: > 100 µM (inactive)
RXF 393
  GI50: 21.7 µM (inactive)
RXF 631
  GI50: > 100 µM (inactive)
SF-268
  GI50: 69.8 µM (inactive)
SF-295
  GI50: > 41.5 µM (inactive)
SF-539
  GI50: > 69.3 µM (inactive)
SK-MEL-28
  GI50: > 100 µM (inactive)
SK-MEL-2
  GI50: > 100 µM (inactive)
SK-MEL-5
  GI50: > 100 µM (inactive)
SK-OV-3
  GI50: > 72.9 µM (inactive)
SN12C
  GI50: > 100 µM (inactive)
SNB-19
  GI50: 76.2 µM (inactive)
SNB-75
  GI50: 17.5 µM (inactive)
SNB-78
  GI50: 38.7 µM (inactive)
SR
  GI50: > 100 µM (inactive)
SW-620
  GI50: > 100 µM (inactive)
T47D
  GI50: > 100 µM (inactive)
TK-10
  GI50: > 71.8 µM (inactive)
U-251
  GI50: 31.2 µM (inactive)
UACC-257
  GI50: > 100 µM (inactive)
UACC-62
  GI50: > 81.1 µM (inactive)
UO-31
  GI50: > 100 µM (inactive)
XF498
  GI50: 29.9 µM (inactive)

Source: ChEMBL document CHEMBL1201862, “PubChem BioAssay data set” (2004)
